From US20050215609A1, “Novel uses of prostaglandin d2, prostaglandin d2 agonist and prostaglandin d2 antagonist” (priority 2002, published 2005)
Where a name gives a salt, the structure may show the parent alone.

Assays:
PGD2 receptor = target: T1, PGD2 receptor (Mus musculus, UniProt P70263); assay: Effect of PGD2 antagonist on the orexigenic action of PGD2, combined ICV administration (Experiment 2); type: in vivo; details: mice, two hours after administration
T1 construct: injected into the third cerebral ventricle; from tissue; host or cells: living ddY mouse, brain (ICV injection into the third cerebral ventricle)
T1 sequence (P70263 1-357): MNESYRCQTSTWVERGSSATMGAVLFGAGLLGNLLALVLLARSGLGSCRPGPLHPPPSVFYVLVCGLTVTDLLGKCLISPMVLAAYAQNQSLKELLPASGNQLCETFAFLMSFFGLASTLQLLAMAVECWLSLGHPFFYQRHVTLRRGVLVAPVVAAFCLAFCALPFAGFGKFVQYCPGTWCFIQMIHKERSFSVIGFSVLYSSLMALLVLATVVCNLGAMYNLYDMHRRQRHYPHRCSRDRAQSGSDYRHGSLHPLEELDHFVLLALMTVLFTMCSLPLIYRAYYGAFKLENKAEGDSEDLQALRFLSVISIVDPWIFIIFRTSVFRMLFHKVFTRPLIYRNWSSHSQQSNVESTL
Method: (§1) The weight of food pellets was measured before and after ICV injection and cumulative food intake was calculated.
(§2) Values were expressed as the mean ± SEM. Analysis of variance (ANOVA) followed by Bonferroni's t-test was used to assess differences among groups. P values less than 0.05 were considered significant.
The groups, one of which was administered PGD2 alone and the other received combined administration of PGD2/PGD2 antagonist, were used to investigate the effect of PGD2 antagonist on the orexigenic action of PGD2. PGD2 antagonist, (±) 3-benzyl-5-(6-carboxyhexyl)-1-(2-cyclohexyl-2-hydroxyethylamino)hydantoin (BW A868C, Sigma-Aldrich) was used.

Male ddY mice [1] = assay: Anorexigenic action of PGD2 antagonist, food intake of mice after ICV administration (Experiment 3 (1)); type: in vivo; details: BW A868C 0.72 and 7.2 μg/mouse
Method: as §1
The PGD2 antagonist used in Experiment 2, i.e., (±) 3-benzyl-5-(6-carboxyhexyl)-1-(2-cyclohexyl-2-hydroxyethylamino)hydantoin (BW A868C, Sigma-Aldrich), was used to investigate anorexigenic action in mice. The compound was administered to mice via ICV injection (0.72 and 7.2 μg/mouse) as described in Experiment 1, and the food intake was compared with the group that received the vehicle (ACSF).

Male ddY mice [2] = assay: Food intake of mice after ICV administration of PGD2 (Experiment 1); type: in vivo, mouse
Method: as §1, §2

SD rat [3] = assay: Cumulative food intake of SD rat after intraperitoneal administration (Experiment 3 (2), Table 2); type: in vivo; details: i.p., 30 mg/kg
Method: as §1, §2
Also, another group of SD rat was administered the test compound via intraperitoneal administration (30 mg/kg) and the food intake was compared with the group that received vehicle (5% DMSO in saline).

[4] = Changes in body weight of fasted SD rat after ICV administration (Experiment 3 (2), Table 1); type: in vivo; details: SD rat fasted 24 hours, 100 μg
Method: (§3) The PGD2 antagonist, (Z)-7-[(1R,2R,3S,5S)]-2-(5-hydroxybenzo[b]thiophene-3-ylcarbonylamino)-10-norpinane-3-yl]heptan-5-enonic acid (formula IA-a1) was used to investigate anorexigenic action […]. The sodium salt of this compound was administered to SD rat, fasted for 24 hours, via ICV injection as described above (dosage: 0.1, 1, 10, 100 μg/rat), and the food intake was compared with the group that received vehicle (5% DMSO in saline).

SD rat [5] = assay: Cumulative food intake of fasted SD rat after ICV administration (Experiment 3 (2), Table 1); type: in vivo; details: SD rat fasted 24 hours, 100 μg
Method: as §1, §2, §3

## O=C(O)CCCCCCC1C(=O)N(Cc2ccccc2)C(=O)N1NCC(O)C1CCCCC1 (racemic) [BW A868C, (±)-3-benzyl-5-(6-carboxyhexyl)-1-(2-cyclohexyl-2-hydroxyethylamino)hydantoin]
PGD2 receptor
  effect on the orexigenic action of PGD2 (food intake): inhibited the orexigenic action of PGD2 completely
Male ddY mice [1]
  food intake compared to vehicle: inhibition of food intake was observed

## CCCCC[C@H](O)/C=C/[C@H]1C(=O)C[C@H](O)[C@@H]1C/C=C\CCCC(=O)O [PGD2, prostaglandin D2]
Male ddY mice [2]; 0.2 μg PGD2/mouse, 60 and 120 min after the injection
  food intake versus control group: significant increase in food intake
Male ddY mice [2]; 2 μg PGD2/mouse, 60 and 120 min after the injection
  food intake versus control group: significant increase in food intake
Male ddY mice [2]; 20 μg PGD2/mouse
  food intake versus control group: the food intake was temporally inhibited shortly after the injection, but the food intake was increased thereafter

## CC1(C)C2CC1[C@H](NC(=O)c1csc3ccc(O)cc13)[C@@H](C/C=C\CCCC(=O)O)C2 (some centres unmarked) [Compund (IA-a1) (Na salt)]
SD rat [3]; 1 hr.
  Cululative Food intake (g) 1 hr.: 2.38 ± 0.41 g
SD rat [3]; 2 hr.
  Cululative Food intake (g) 2 hr.: 4.30 ± 0.67 g
SD rat [3]; 4 hr.
  Cululative Food intake (g) 4 hr.: 7.85 ± 0.66 g
SD rat [3]; 24 hr.
  Cululative Food intake (g) 24 hr.: 32.05 ± 1.09 g
[4]; 1 hr.
  Changes in body weght (g) 1 hr.: 0.89 ± 0.79 g
[4]; 2 hr.
  Changes in body weght (g) 2 hr.: 2.89 ± 1.28 g
[4]; 4 hr.
  Changes in body weght (g) 4 hr.: 1.07 ± 1.47 g
[4]; 24 hr.
  Changes in body weght (g) 24 hr.: 7.20 ± 2.60 g
SD rat [5]; 1 hr.
  Cululative Food intake (g) 1 hr.: 5.18 ± 0.47 g
SD rat [5]; 2 hr.
  Cululative Food intake (g) 2 hr.: 6.15 ± 0.50 g
SD rat [5]; 4 hr.
  Cululative Food intake (g) 4 hr.: 6.86 ± 0.49 g
SD rat [5]; 24 hr.
  Cululative Food intake (g) 24 hr.: 25.71 ± 1.30 g
